From paper PMC9400870 (2022)

Key:
[1] = test system: p(dAdT)2 (DNA, polymer) AT; assay: fluorimetric titration, Scatchard fit; conditions: Na+ (sodium cacodylate, I = 0.05 M); pH 7.0; compound 5×10^-7 M; n fixed at 0.1; per base
pApU (RNA, polymer) A/U [2] = assay: UV thermal denaturation, 260 nm; conditions: Na+ (sodium cacodylate, I = 0.05 M), pH 7, per base
[3] = test system: p(dAdT)2 (DNA, polymer) AT; assay: UV thermal denaturation, 260 nm; conditions: Na+ (sodium cacodylate, I = 0.05 M), pH 7, polynucleotide 2×10^-5 M, per base
pApU (RNA, polymer) A/U [4] = assay: fluorimetric titration, Scatchard fit; conditions: Na+ (sodium cacodylate, I = 0.05 M); pH 7.0; compound 5×10^-7 M; n fixed at 0.1; per base
[5] = test system: p(dGdC)2 (DNA, polymer) GC; assay: fluorimetric titration, Scatchard fit; conditions: Na+ (sodium cacodylate, I = 0.05 M); pH 7.0; compound 5×10^-7 M; n fixed at 0.1; per base
[6] = r [compound]/[polynucleotide] = 0.3

Row | log Ks [1] [M^-1] | ΔTm (pApU (RNA, polymer) A/U [2]; [6]) [°C] | ΔTm [3, 6] [°C] | log Ks (pApU (RNA, polymer) A/U [4]) [M^-1] | log Ks [5] [M^-1] | ΔTm (pApU (RNA, polymer) A/U [2]; r [compound]/[polynucleotide] = 0.2, polynucleotide 2×10^-5 M) [°C] | ΔTm ([3]; r [compound]/[polynucleotide] = 0.2) [°C] | SMILES
1 | 4.5 | 0 ± 0.5 | 2.0 ± 0.5 | 5.3 | 5.9 |  |  | C[n+]1ccc(C#Cc2ccc(C#Cc3cc[n+](C)cc3)cc2)cc1
2 | 5.2 | 1.0 ± 0.5 | 7.0 ± 0.5 | 5.0 | 5.1 |  |  | C[n+]1ccc(C#Cc2c(F)c(F)c(C#Cc3cc[n+](C)cc3)c(F)c2F)cc1
3 | 6.6 |  |  | 5.3 | 7.0 | 39.0 ± 0.5 | 37 ± 0.5 | C[n+]1ccc(C#Cc2c3ccccc3c(C#Cc3cc[n+](C)cc3)c3ccccc23)cc1
